According to paper PMC2920039 (Bioorganic & medicinal chemistry, 2010):

Columns and labels:
CB2 receptor [1] = molecular target: CB2 receptor (Homo sapiens, UniProt P34972); format: binding
CB2 receptor [2] = conditions: cited from earlier work
[3] = cited from earlier work
CB2 receptor [4] = conditions: cited from earlier work; remark: listed apart in the source

Chain of CB2 receptor (Homo sapiens, UniProt P34972) (P34972 whole entry): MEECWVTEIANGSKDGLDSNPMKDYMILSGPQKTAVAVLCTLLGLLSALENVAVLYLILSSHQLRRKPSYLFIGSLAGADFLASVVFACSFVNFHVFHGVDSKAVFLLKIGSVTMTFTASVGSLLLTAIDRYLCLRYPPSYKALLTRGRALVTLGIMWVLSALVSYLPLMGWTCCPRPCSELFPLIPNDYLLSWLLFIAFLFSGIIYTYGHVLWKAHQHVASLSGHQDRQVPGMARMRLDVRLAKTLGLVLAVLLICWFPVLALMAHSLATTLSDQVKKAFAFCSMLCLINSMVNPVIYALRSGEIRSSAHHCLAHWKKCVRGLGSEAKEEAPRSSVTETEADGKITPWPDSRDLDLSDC

## CCCCCCC(C)(C)c1ccc([C@H]2CCC[C@@H](O)C2)c(OC)c1 (relative stereo) [JWH-441, (1R*,3S*)3-[2-Methoxy-4-(1,1-dimethylheptyl)phenyl]cyclohexanol]
CB2 receptor [1]
  CB1/CB2 (ratio of Ki): >12

## CCCCCCC(C)(C)c1cc(OC)c2c(c1)OC(C)(C)C1CC=C(C)CC21 (stereo not drawn) [1-methoxy-3-(dimethylheptyl)-•^8-THC]
CB2 receptor [2]
  selectivity for the CB2 receptor: 12 fold
CB2 receptor [2]; read-out: Ki CB2
  Ki: 57 nM

## CCCC(C)(C)c1ccc2c(c1)OC(C)(C)[C@@H]1CC=C(C)C[C@@H]21 [JWH-133]
CB2 receptor [2]
  selectivity for the CB2 receptor: 200 fold
[3]
  activity in the mouse model of cannabinoid activity: inactive
CB2 receptor [4]
  agonism at the CB2 receptor: full agonist
